The source of these data is patent US4590193A, “3-(2-(4-phenylpiperazinylethyl)anilino)-isobenzofuranones, their method of preparation and their use as antihypertensive and antiallergic drugs” (Societe Cortial, S.A., priority 1982, dated 1986).

In data set [1] the test system is cutaneous reactions induced by the 48/80 compound. The data set can be described thus: Cutaneous reactions induced by 48/80 compound. It counts as in vivo, rats. The settings on record: oral, rat. As for the experimental part: (§1) The products of this invention were administered orally to rats in the model of the cutaneous reactions. These reactions were induced by intradermal administration of histamine, serotonin, or the 48/80 compound. The activity of these products is expressed as the percentage of reduction in the amount of blue dye having diffused at the injection point, and the obtained values for ED50 expressed in mg/kg are given in Table VI.

The subject of data set [2] is motility. The data set can be described thus: Effect on motility in mice (actimeter), sedative. The data set is classed as in vivo. Conditions: Mus musculus, oral, read-out: ED50 as a sedative (motility). As for the experimental part:
(§2) When administered orally to spontaneously hypertensive rats at a rate of 50 mg/kg every 12 hours for five days, COR 34 41 causes a drop in the AP. The AP becomes stable at the end of the treatment, at a value of about 18 mm Hg below its initial value. The effect on motility when giving the present substances orally to mice, was tested by using an actimeter.

Data set [3] has as its system bronchospasm induced by a 0.3% histamine aerosol. The data set can be described thus: In vivo antihistamine activity: bronchospasm induced by histamine aerosol in awake guinea pig. Conditions: 10 mg/kg oral in Tween. As for the experimental part: The in vivo antihistamine activity is determined in the awake guinea pig by testing the bronchospasm induced by a 0.3% histamine aerosol. The antihistaminic activity of the present products is tested upon their oral administration in Tween.

The test system of data set [4] is cutaneous reactions induced by serotonin. The data set can be described thus: Cutaneous reactions induced by serotonin. The data set is classed as in vivo, rats. The settings on record: oral, rat. On the procedure: as §1
The test system of data set [5] is cutaneous passive anaphylaxis. The data set can be described thus: Antiallergic activity: cutaneous passive anaphylaxis. The data set is classed as in vivo, Sprague Dawley rats. The settings on record: po; per os, rat, reduction of Evans blue diffused. On the procedure:
The antiallergic activity has been determined in Sprague Dawley rats by the test for cutaneous passive anaphylaxis. Anaphylaxis is induced by the intradermal administration of a serum rich in IgE, followed 24 hours later by the intravenous injection of a solution containing ovalbumin and Evans blue. The activity of the products to be tested, administered per os, is estimated as the percentage of reduction in the amount of Evans blue having diffused at the injection point. Table VI provides the ED50 expressed in mg/kg of certain products of this invention.

The test system of data set [6] is cutaneous reactions induced by histamine. The data set can be described thus: Cutaneous reactions induced by histamine. It counts as in vivo, rats. The settings on record: oral, rat. As for the experimental part:
as §1

The subject of data set [7] is contractions induced by serotonin on an isolated guinea pig ileum. The data set can be described thus: In vitro antiserotonin activity: inhibition of serotonin-induced contractions of isolated guinea pig ileum. The data set is classed as cell-based. The settings on record: Cavia porcellus, serotonin 5.10^-7 g/ml.
A short description of data set [8]: Intraperitoneal toxicity (mortality, LD50). Conditions: mouse, in vivo, ip; for mortality: read-out: percentage of mortality; for LD50: Bliss method. On the procedure: (§3) The mortality induced by these substances was determined by using Swiss mice which were free of specific pathogenic organisms. The animals were kept in an air conditioned room for 24 to 48 hours prior to the beginning of the experiments. The substances were solubilized in Tween and administered either intragastrically or intraperitoneally.

Data set [9] is described as follows: Oral toxicity (mortality), intragastric administration. The settings on record: mouse, in vivo, read-out: percentage of mortality. On the procedure:
as §3

Data set [10] has as its target T1, contractions induced by histamine on a guinea pig ileum (Cavia porcellus, UniProt P31389).
T1 construct: on a guinea pig ileum; from tissue; host or cells: isolated guinea pig ileum
The data set can be described thus: In vitro antihistamine activity: inhibition of histamine-induced contractions of guinea pig ileum. It counts as cell-based. Conditions: for Kb: competitive antagonism of histamine, read-out: pA2 (converted); for IC50: histamine 10^-8 g/l. As for the experimental part:
The antagonist is administered at the same time as the agonist or before. In the latter case, the time of contact between the antagonist and the organ isolated before the introduction of the agonist is shown in Table III.

Data set [11] concerns spontaneously hypertensive awake rat. The data set can be described thus: Antihypertensive activity in spontaneously hypertensive awake rat, oral. The data set is classed as in vivo. As for the experimental part:
In the spontaneously hypertensive awake rat the compound COR 34 41 causes a drop in AP of 18.8% at 25 mg/kg per os, and it causes a drop in AP of 19.3% at 50 mg/kg. The AP returns to normal at the end of an hour, at a dosage of 25 mg/kg, and at the end of 5 hours with a dosage of 50 mg/kg.
The compound COR 34 42 causes a AP drop of 15.6% at a dose of 50 mg/kg per os. The AP returns to normal at the end of 5 hours.

Data set [12] relates to spontaneously hypertensive rats. The data set can be described thus: Antihypertensive activity in spontaneously hypertensive rats, repeated oral administration. It counts as in vivo, rat. Conditions: 50 mg/kg orally every 12 hours for five days. As for the experimental part: as §2
The subject of data set [13] is Swiss mice. Conditions: 14 days of observation; 20 wt. % "Tween" solution; range of lethal doses 946-1459; cited from earlier work.
[14] abbreviates: no time of contact printed (antagonist given at the same time as agonist).

T1 sequence (P31389 whole entry): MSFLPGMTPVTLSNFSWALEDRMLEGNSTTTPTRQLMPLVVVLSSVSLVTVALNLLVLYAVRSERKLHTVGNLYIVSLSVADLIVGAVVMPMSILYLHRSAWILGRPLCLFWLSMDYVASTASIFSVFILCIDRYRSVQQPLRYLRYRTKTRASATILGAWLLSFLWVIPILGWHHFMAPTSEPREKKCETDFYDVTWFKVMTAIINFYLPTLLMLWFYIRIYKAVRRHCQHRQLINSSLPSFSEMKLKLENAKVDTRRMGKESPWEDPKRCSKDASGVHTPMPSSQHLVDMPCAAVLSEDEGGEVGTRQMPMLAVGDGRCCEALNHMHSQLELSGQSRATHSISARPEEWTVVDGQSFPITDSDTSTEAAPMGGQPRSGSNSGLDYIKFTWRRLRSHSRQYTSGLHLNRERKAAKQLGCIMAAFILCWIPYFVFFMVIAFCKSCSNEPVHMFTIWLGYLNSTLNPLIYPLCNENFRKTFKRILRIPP

For the compound `O=C1OC(Nc2ccccc2CCN2CCN(c3ccccc3)CC2)c2ccccc21` (stereo not drawn) [COR 34 30, 3-(2-(4-phenylpiperazinylethyl)anilino)-isobenzofuranone], the ED50 in [1] is 11.2 mg/kg; in data set [2], about 50 mg/kg; in data set [4], 13.2 mg/kg; in [5], 3.8 mg/kg; in data set [6], 12.1 mg/kg. In [3], the “% of animals protected at 1 h” value is listed as 60%. Moreover, the “% of animals protected at 6 h” value in data set [3] worked out at 40%. The figures for the IC50 in data set [7] (time of contact 5 mm) and in data set [10] (setting [14]) were 9.33 µM and 1.04 µM, respectively. Moreover, the mortality in data set [8] (100 mg/kg) stood at 0%; in [8] (200 mg/kg), 10%; in data set [8] (300 mg/kg), 0%; in data set [8] (500 mg/kg), 0%; in data set [9] (1000 mg/kg), 0%; in data set [9] (2000 mg/kg) it was 0%. Besides, the mortality in [9] (3000 mg/kg) came out at 10%. In addition, the Kb in [10] is 0.0204 µM.

For the compound `O=C1OC(Nc2ccccc2CCN2CCN(c3ccc(F)cc3)CC2)c2ccccc21` (stereo not drawn) [COR 34 37, 3-(2-(4-fluorophenylpiperazinylethyl)anilino)isobenzofuranone], the ED50 is 9.4 mg/kg in data set [1], 7.9 mg/kg in [4], 6.4 mg/kg in data set [5] and 9.3 mg/kg in [6]. The “% of animals protected at 1 h” value in data set [3] is listed as 70%. In addition, in data set [3], the “% of animals protected at 6 h” value came out at 70%. Also, the IC50 was 22.7 µM in data set [7] (time of contact 5 mm) and 0.0155 µM in data set [10] (time of contact 3 mm). Further, the mortality in data set [8] (500 mg/kg) is 20%; in data set [8] (1000 mg/kg) it was 60%; in data set [9] (750 mg/kg), 0%; in [9] (1000 mg/kg) it was 10%; in [9] (2000 mg/kg), 50%. In data set [10], the Kb was 0.0138 µM.

Regarding `COc1ccccc1N1CCN(CCc2ccccc2NC2OC(=O)c3ccccc32)CC1` (stereo not drawn) [COR 34 41], the “AP returns to normal at the end of” value in [11] (25 mg/kg per os) was “an hour”; in data set [11] (50 mg/kg per os) it was 5 h. The “drop in AP” value is on record as 18.8% in data set [11] (25 mg/kg per os) and 19.3% in data set [11] (50 mg/kg per os). Also, the ED50 in [1] is 10.9 mg/kg; in data set [4], 14 mg/kg; in data set [5], 4.1 mg/kg; in [6], 7.9 mg/kg. Further, the “% of animals protected at 1 h” value in data set [3] came to 90%. For the same compound, in [3], the “% of animals protected at 6 h” value came out at 60%. For the same compound, the “AP below its initial value at the end of the treatment” value in data set [12] is reported as “about 18 mm Hg”. Besides, the half-inhibitory concentration (IC50) in [7] (time of contact 15 mm) amounted to 12.6 µM; in [10] (time of contact 10 mm), 0.0311 µM. For the same compound, the mortality in data set [8] (400 mg/kg) stood at 0%; in data set [8] (500 mg/kg), 25%; in data set [8] (800 mg/kg), 35%; in [8] (900 mg/kg), 50%; in data set [8] (1000 mg/kg) it was 70%; in data set [9] (750 mg/kg) it was 0%. Further, the mortality in data set [9] (1000 mg/kg) and in data set [9] (2000 mg/kg) was 10% each time. The LD50 in [8] was 873 mg/kg. The Kb in data set [10] is 0.00933 µM.

Take `COc1ccc2c(c1OC)C(=O)OC2Nc1ccccc1CCN1CCN(c2ccc(Cl)cc2)CC1` (stereo not drawn) [COR 34 42, 3-(2-(4-p-chlorophenylpiperazinylethyl)-aniline)-6,7-dimethoxyisobenzofuranone]: in [11] (50 mg/kg per os), the “AP returns to normal at the end of” value worked out at 5 h. In data set [11] (50 mg/kg per os), the “drop in AP” value is reported as 15.6%. Also, the results for the ED50 in [2] and in data set [5] were 10 mg/kg and 14.8 mg/kg, respectively. Also, the mortality in data set [9] (1000 mg/kg) and in data set [9] (2000 mg/kg) was 0% in each case. In data set [10] (time of contact 5 mm), the IC50 was found to be 0.033 µM.

In the case of `COc1ccc2c(c1OC)C(=O)OC2Nc1ccccc1CCN1CCN(c2ccc(F)cc2)CC1` (stereo not drawn) [COR 34 43, 6,7-dimethoxy-3-(2-(4-p-fluorophenylpiperazinylethyl)-anilino)isobenzofuranone], the ED50 in data set [1] turned out to be 11.1 mg/kg; in [4], 17.1 mg/kg; in data set [5], 6.6 mg/kg; in data set [6] it was 9.1 mg/kg. Further, in data set [3], the “% of animals protected at 1 h” value is on record as 90%. In [3], the “% of animals protected at 6 h” value is given as 50%. Also, the IC50 in [7] (time of contact 3 mm) is 20.5 µM; in [10] (setting [14]), 3.53 µM. For the same compound, the mortality in [8] (500 mg/kg), in data set [8] (800 mg/kg), in data set [8] (1000 mg/kg), in data set [9] (1000 mg/kg) and in data set [9] (2000 mg/kg) was 0% in each case. The Kb in data set [10] is 0.0107 µM.

For the compound `COc1ccc2c(c1OC)C(=O)OC2Nc1ccccc1CCN1CCN(c2ccccc2)CC1` (stereo not drawn) [COR 34 47, 6,7-dimethoxy-3-(2-(4-phenylpiperazinylethyl)anilino)isobenzofuranone], the “% of animals protected at 1 h” value in data set [3] stood at 20%. Also, in [3], the “% of animals protected at 6 h” value came to 0%. In addition, the results for the IC50 in [7] (time of contact 3 mm) and in [10] (time of contact 3 mm) were 19.7 µM and 0.029 µM, respectively. For the same compound, the mortality in [8] (500 mg/kg), in data set [8] (1000 mg/kg), in [9] (1000 mg/kg) and in data set [9] (2000 mg/kg) was 0% throughout.

Take `COc1ccc2c(c1OC)C(=O)OC2Nc1ccccc1CCN1CCN(c2ccccc2C)CC1` (stereo not drawn) [COR 34 48]: the ED50 in data set [2] is 9 mg/kg. For the same compound, the “% of animals protected at 1 h” value in data set [3] is listed as 40%. Moreover, the “% of animals protected at 6 h” value in data set [3] amounted to 10%. Besides, the IC50 in data set [7] (time of contact 5 mm) turned out to be 6.46 µM; in [10] (time of contact 5 mm) it was 0.055 µM. In addition, the mortality in data set [8] (500 mg/kg), in data set [8] (1000 mg/kg), in data set [9] (1000 mg/kg) and in data set [9] (2000 mg/kg) was 0% each time.

As to `Cc1ccccc1N1CCN(CCc2ccccc2NC2OC(=O)c3ccccc32)CC1` (stereo not drawn) [COR 34 49, 3-(2-(4-(2-methylphenyl)piperazinylethyl)-aniline)isobenzofuranone], in [2], the ED50 came out at 18 mg/kg. Also, in [3], the “% of animals protected at 1 h” value is given as 30%. Besides, the “% of animals protected at 6 h” value in [3] stood at 20%. The mortality in data set [8] (500 mg/kg) worked out at 0%; in data set [8] (1000 mg/kg), 20%; in data set [9] (1000 mg/kg), 0%; in data set [9] (2000 mg/kg), 0%. This compound yielded an IC50 in data set [10] (time of contact 10 mm) of 0.08 µM.

`COc1ccc(N2CCN(CCc3ccccc3NC3OC(=O)c4ccccc43)CC2)cc1` (stereo not drawn) [COR 34 53, 3-(2-(4-methoxyphenylpiperazinylethyl)anilino)isobenzofuranone]: the mortality was determined as 60% in data set [8] (500 mg/kg), 100% in data set [8] (1000 mg/kg), 0% in data set [9] (1000 mg/kg) and 20% in data set [9] (2000 mg/kg). In [8], this compound had an LD50 of 500 mg/kg. Further, the IC50 in data set [10] (time of contact 5 mm) was about 1.5 µM.

With `CC(CN1c2ccccc2Sc2ccccc21)N(C)C` (stereo not drawn) [Promethazine, reference compound], the IC50 in [7] (time of contact 3 mm) came to 0.444 µM.

Take `Nc1ccccc1CCN1CCN(c2ccccc2)CC1` [product of Example 1, 2-(4-phenylpiperazinylethyl)aniline]: in data set [13], the LD50 is reported as 1175 mg/kg.
